Measured values: patent US8916604B2, “Compositions and methods for epigenetic modification of nucleic acid sequences” (Rutgers, The State University of New Jersey, priority 2011, dated 2014)

Key:
[1] = tested on: 5-methylcytosine (5-MC); assay: IHC staining of TRAMP prostate tissue, global CpG methylation; type: in vivo, mouse; conditions: D-G1 and D-G2, p<0.001
Method: Sections (4 μm) were cut from the paraffin embedded prostate tissue and mounted on glass slides. The slides Were deparafinized in xylene and antigen unmasking was performed by applying proteinase K digestion directly on the slides for 15 min. Endogenous peroxidase was blocked by incubating in 3% […] for 5 min, and ApopTag Plus Peroxidase In Situ Apoptosis Detection Kit (Millipore, Temecula, Calif., U.S.A.) was used to detect apoptotic cells. For detection of proliferative cells, monoclonal mouse anti-proliferating cell nuclear antigen (PCNA) antibody (Clone PC10, 1:50, Dako North America, Carpinteria, Calif., U.S.A.) was used (12). The staining was performed following as the manufacturer's protocols. Anti-5-methylcytosine (5-MC) mouse monoclone antibody (Clone 162 33 D3, 1:50, EMD Chemicals, Philadelphia, Pa., U.S.A.) was used to detect genome-wide methylated DNA. […] Quantitation of IHC staining was done using the Aperio ScanScope® GL system according to the manufactures protocol (Aperio Technologies Inc., Vista, Calif., U.S.A.). […] The Aperio ImageScopoe software (v 10.1.3.2028) allowed the unbiased quantification and quantitative analysis of the IHC staining of biomarkers of prostate tumor samples obtained from untreated control versus the treated TRAMP mice.

[2] = tested on: first 5 CpGs in the promoter region of Nrf2 gene; assay: Bisulfite genomic sequencing of TRAMP C1 cells; type: cell-based, mouse; conditions: 5 days, untreated control 96.8%
Method: The DIM used in the study contains approximately 98% of DIM purchased from Sigma-Aldrich t St. Louis, Mo., USA), TRAMP C1 cells (provided by Dr. Barbara Foster, Department of Pharmacology and Therapeutics, Roswell Park Cancer institute, Buffalo. NY), originally derived from TRAMP prostate tumor, were cultured in Dulbecco's Modified Eagle's Medium (Invitrogen Corp., Carlsbad, Calif. U.S.A.) supplemented with 10% (V/V) fetal bovine serum (FBS) (Invitrogen Corp., Grand Island, N.Y., U.S.A.), penicillin 100 U/ml, and streptomycin 100 μg/ml (Invitrogen Corp., Grand Island, N.Y., U.S.A.), Cells were maintained in a humidified incubator with 5% CO2 at 37° C. Cells were seeded in 10 cm plates for 24 h and then treated with 0.1% DMSO (control) or different concentrations of DIM in 1% FBS containing medium for 5 days. The medium was changed every 2 days (20),
Genomic DNA was isolated from the control or DIM treated TRAMP C1 cells and TRAMP dorso-lateral prostate tissues collected from control and DIM treated groups pooled and homogenized using the DNeasy tissue kit (Qiagen, Valencia, Calif., U.S.A.). The genomic DNAs were extracted and subjected to bisulfite conversion carried out using 750 ng of genomic DNA and applying to EZ DNA Methylation Gold Kits (Zymo Research Corp., Orange, Calif., U.S.A.) following the manufacturer's instructions. […]

[3] = tested on: DNMT1; assay: qPCR in TRAMP C1 cells; type: cell-based, mouse; conditions: 5 μM and 10 μM, p<0.05
Method: (§1) The DIM used in the study contains approximately 98% of DIM purchased from Sigma-Aldrich t St. Louis, Mo., USA), TRAMP C1 cells (provided by Dr. Barbara Foster, Department of Pharmacology and Therapeutics, Roswell Park Cancer institute, Buffalo. NY), originally derived from TRAMP prostate tumor, were cultured in Dulbecco's Modified Eagle's Medium (Invitrogen Corp., Carlsbad, Calif. U.S.A.) supplemented with 10% (V/V) fetal bovine serum (FBS) (Invitrogen Corp., Grand Island, N.Y., U.S.A.), penicillin 100 U/ml, and streptomycin 100 μg/ml (Invitrogen Corp., Grand Island, N.Y., U.S.A.), Cells were maintained in a humidified incubator with 5% CO2 at 37° C. Cells were seeded in 10 cm plates for 24 h and then treated with 0.1% DMSO (control) or different concentrations of DIM in 1% FBS containing medium for 5 days. The medium was changed every 2 days (20), Total RNA were extracted from DIM treated TRAMP C1 cells and were reversed transcribed. The primers, DNMT1, DNMT3a, DNMT3b, NQO1, HO-1, GSTm1, UGT1a1 and control β-actin of qPCR are listed in Table 5 (Integrated DNA. Technologies, Coralville, Iowa, U.S.A.), The qPCR reactions were carried out with 1 μl cDNA product, 50 nM of each primer, and Power SYBR Green master mix (Applied Biosystems, Foster City, Calif., U.S.A.) in 10 μl reactions. The reactions were performed using an ABI Prism 7900HT sequence detection system; specificity of amplification was verified by first-derivative inciting curve analysis using the ABI software (SDS 2.3, Applied Biosystems, Foster City, Calif., U.S.A.). Relative quantification of gene expression profile was calculated using a ΔΔCt method. (RQ manager, Applied Biosystems, Foster City, C. CA, U.S.A.) as we have performed previously (Barve et al., J Pharm Sci., 2008; 94: 4528-45). Three independent experiments were carried out showing similar results. The results are presented as mean±SD.

[4] = tested on: DNMT3a; assay: qPCR in TRAMP C1 cells; type: cell-based, mouse; conditions: 5 μM, p<0.05
Method: as §1

[5] = tested on: DNMT3b; assay: qPCR in TRAMP C1 cells; type: cell-based, mouse; conditions: 5 μM and 10 μM
Method: as §1

[6] = tested on: GSTm1; assay: qPCR in TRAMP C1 cells; type: cell-based, mouse; conditions: 5 days
Method: as §1

[7] = tested on: NQO1; assay: qPCR in TRAMP C1 cells; type: cell-based, mouse; conditions: 5 days
Method: as §1

[8] = tested on: Nrf2; assay: qPCR in TRAMP C1 cells; type: cell-based, mouse; conditions: 5 days
Method: as §1

For `c1ccc2c(Cc3c[nH]c4ccccc34)c[nH]c2c1` [DIM, 3,3′-diindolylmethane], the “5-MC IHC staining of the prostate tissue” value [1] was “significantly decreased”, the “methylation of the first 5 CpGs of Nrf2 promoter” value ([2]; 2.5 μM) was 73.7% and the “methylation of the first 5 CpGs of Nrf2 promoter” value ([2]; 5 μM) was 55.8%. The “DNMT1 mRNA expression” value [3] was “significantly suppressed”, the “DNMT3a mRNA expression” value [4] was “suppressed” and the “DNMT3b mRNA expression” value [5] was “suppressed”. The “GSTm1 mRNA expression” value [6] was “enhanced”, the “NQO1 mRNA expression” value [7] was “enhanced” and the “Nrf2 mRNA expression” value [8] was “enhanced”.
